According to the NIST ThermoML archive (doi:10.1016/j.jct.2019.06.032):
± gives the expanded uncertainty stated by the source.

Columns and labels:
[1] = 101 kPa, Liquid; for viscosity: Capillary tube (Ostwald / Ubbelohde) method; for mass density: Vibrating tube method
[2] = xn = mol fraction of the nth substance listed; conditions: 101 kPa, Liquid; for viscosity: Capillary tube (Ostwald / Ubbelohde) method; for mass density: Vibrating tube method

SMILES: NCCO [2-aminoethan-1-ol]
- viscosity ([1]; 293.15 K): 23.79 ± 4.8 mPa·s
- mass density ([1]; 293.15 K): 1016.9 ± 10 kg/m3
- viscosity ([1]; 303.15 K): 14.83 ± 3 mPa·s
- mass density ([1]; 303.15 K): 1009.5 ± 10 kg/m3
- viscosity ([1]; 313.15 K): 9.89 ± 2 mPa·s
- mass density ([1]; 313.15 K): 1001.1 ± 10 kg/m3
- viscosity ([1]; 323.15 K): 6.872 ± 1.4 mPa·s
- mass density ([1]; 323.15 K): 992.7 ± 10 kg/m3
- viscosity ([1]; 333.15 K): 4.99 ± 1 mPa·s
- mass density ([1]; 333.15 K): 984.3 ± 10 kg/m3

SMILES: NCCO [2-aminoethan-1-ol] + CCN(CC)CCO
- viscosity ([2]; 293.15 K, x1 = 1): 23.79 ± 4.8 mPa·s
- mass density ([2]; 293.15 K, x1 = 1): 1016.9 ± 10 kg/m3
- viscosity ([2]; 303.15 K, x1 = 1): 14.83 ± 3 mPa·s
- mass density ([2]; 303.15 K, x1 = 1): 1009.5 ± 10 kg/m3
- viscosity ([2]; 313.15 K, x1 = 1): 9.89 ± 2 mPa·s
- mass density ([2]; 313.15 K, x1 = 1): 1001.1 ± 10 kg/m3
- viscosity ([2]; 323.15 K, x1 = 1): 6.872 ± 1.4 mPa·s
- mass density ([2]; 323.15 K, x1 = 1): 992.7 ± 10 kg/m3
- viscosity ([2]; 333.15 K, x1 = 1): 4.99 ± 1 mPa·s
- mass density ([2]; 333.15 K, x1 = 1): 984.3 ± 10 kg/m3

SMILES: CCN(CC)CCO [(diethylamino)ethanol]
- viscosity ([1]; 293.15 K): 4.848 ± 0.97 mPa·s
- mass density ([1]; 293.15 K): 891.2 ± 10 kg/m3
- viscosity ([1]; 303.15 K): 3.41 ± 0.68 mPa·s
- mass density ([1]; 303.15 K): 874.4 ± 10 kg/m3
- viscosity ([1]; 313.15 K): 2.466 ± 0.49 mPa·s
- mass density ([1]; 313.15 K): 865.4 ± 10 kg/m3
- viscosity ([1]; 323.15 K): 1.855 ± 0.37 mPa·s
- mass density ([1]; 323.15 K): 856.4 ± 10 kg/m3
- viscosity ([1]; 333.15 K): 1.431 ± 0.29 mPa·s
- mass density ([1]; 333.15 K): 845.6 ± 10 kg/m3

SMILES: O [water] + CCN(CC)CCO
- viscosity ([2]; 293.15 K, x2 = 0): 1.004 ± 0.2 mPa·s
- viscosity ([2]; 303.15 K, x2 = 0): 0.813 ± 0.16 mPa·s
- viscosity ([2]; 313.15 K, x2 = 0): 0.662 ± 0.13 mPa·s
- mass density ([2]; 313.15 K, x2 = 0): 992.3 ± 10 kg/m3
- viscosity ([2]; 323.15 K, x2 = 0): 0.57 ± 0.11 mPa·s
- viscosity ([2]; 333.15 K, x2 = 0): 0.483 ± 0.097 mPa·s
- mass density ([2]; 333.15 K, x2 = 0): 983.3 ± 10 kg/m3

SMILES: O [water] + NCCO
- viscosity ([2]; 293.15 K, x2 = 0): 1.004 ± 0.2 mPa·s
- viscosity ([2]; 303.15 K, x2 = 0): 0.813 ± 0.16 mPa·s
- viscosity ([2]; 313.15 K, x2 = 0): 0.662 ± 0.13 mPa·s
- mass density ([2]; 313.15 K, x2 = 0): 992.3 ± 10 kg/m3
- viscosity ([2]; 323.15 K, x2 = 0): 0.57 ± 0.11 mPa·s
- viscosity ([2]; 333.15 K, x2 = 0): 0.483 ± 0.097 mPa·s
- mass density ([2]; 333.15 K, x2 = 0): 983.3 ± 10 kg/m3
